Source: the supplement of paper PMC4862054

Tested on: MDA-MB-468
Assay: normalised response (% of control), CellTiter-Glo; higher = more viable cells (100 = DMSO, 0 = benzethonium chloride kill control)
Settings: incubation time: 72 h
Description: (§1)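 DSRT, 72 h incubation, CellTox Green / CellTiter-Glo readout. Signal is normalised to DMSO and benzethonium chloride controls. Value is the normalised response at dose 3.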

Row | Compound | normalised response
1 | OC[C@H]1O[C@@H](n2cnc3c2N=CNC[C@H]3O)C[C@@H]1O [Pentostatin] (100 nM) | 96.9%
2 | Nc1nc(Cl)nc2c1ncn2[C@H]1C[C@H](O)[C@@H](CO)O1 [Cladribine] (10 nM) | 102%
3 | COc1cccc2c1C(=O)c1c(O)c3c(c(O)c1C2=O)C[C@@](O)(C(=O)CO)C[C@@H]3O[C@H]1C[C@H](N)[C@H](O)[C@H](C)O1 [Doxorubicin] (10 nM) | 106%
4 | CC(=O)O[C@]1(C(C)=O)CC[C@H]2[C@@H]3C=C(C)C4=CC(=O)CC[C@]4(C)[C@H]3CC[C@@]21C [Megestrol acetate] (100 nM) | 90.4%
5 | CN(C)C/C=C/C(=O)Nc1cc2c(Nc3ccc(F)c(Cl)c3)ncnc2cc1O[C@H]1CCOC1 [Afatinib] (10 nM) | 98.1%
6 | COc1cccc2cc(-c3nc([C@H]4CC[C@H](C(=O)O)CC4)n4ncnc(N)c34)[nH]c12 [OSI-027] (100 nM) | 92.1%
7 | N#CC[C@H](C1CCCC1)n1cc(-c2ncnc3[nH]ccc23)cn1 [Ruxolitinib] (100 nM) | 96.6%

Tested on: BT-549
Assay: as above
Settings: incubation time: 72 h
Description: as §1

Row | Compound | normalised response
8 | O=C(c1ccc(C(=O)N2CCC(N3CCCC3)CC2)c(Nc2ccccc2)c1)N1CCC(N2CCCC2)CC1 [UNC1215] (300 nM) | 96.7%
9 | CN1CC[C@H](c2c(O)cc(O)c3c(=O)cc(-c4ccccc4Cl)oc23)[C@H](O)C1 [Alvocidib] (100 nM) | 95.5%
10 | OC[C@H]1O[C@@H](n2cnc3c2N=CNC[C@H]3O)C[C@@H]1O [Pentostatin] (100 nM) | 96.1%
11 | Nc1nc(Cl)nc2c1ncn2[C@H]1C[C@H](O)[C@@H](CO)O1 [Cladribine] (10 nM) | 105%
12 | COc1cccc2c1C(=O)c1c(O)c3c(c(O)c1C2=O)C[C@@](O)(C(=O)CO)C[C@@H]3O[C@H]1C[C@H](N)[C@H](O)[C@H](C)O1 [Doxorubicin] (10 nM) | 103%
13 | CC(=O)O[C@]1(C(C)=O)CC[C@H]2[C@@H]3C=C(C)C4=CC(=O)CC[C@]4(C)[C@H]3CC[C@@]21C [Megestrol acetate] (100 nM) | 109%
14 | CN(C)C/C=C/C(=O)Nc1cc2c(Nc3ccc(F)c(Cl)c3)ncnc2cc1O[C@H]1CCOC1 [Afatinib] (10 nM) | 112%
15 | COc1cccc2cc(-c3nc([C@H]4CC[C@H](C(=O)O)CC4)n4ncnc(N)c34)[nH]c12 [OSI-027] (100 nM) | 98.3%
16 | N#CC[C@H](C1CCCC1)n1cc(-c2ncnc3[nH]ccc23)cn1 [Ruxolitinib] (100 nM) | 103%

Tested on: MDA-MB-436
Assay: as above
Settings: incubation time: 72 h
Description: as §1

Row | Compound | normalised response
17 | O=C(c1ccc(C(=O)N2CCC(N3CCCC3)CC2)c(Nc2ccccc2)c1)N1CCC(N2CCCC2)CC1 [UNC1215] (300 nM) | 99.7%
18 | CN1CC[C@H](c2c(O)cc(O)c3c(=O)cc(-c4ccccc4Cl)oc23)[C@H](O)C1 [Alvocidib] (100 nM) | 75.9%
19 | OC[C@H]1O[C@@H](n2cnc3c2N=CNC[C@H]3O)C[C@@H]1O [Pentostatin] (100 nM) | 96.6%
20 | Nc1nc(Cl)nc2c1ncn2[C@H]1C[C@H](O)[C@@H](CO)O1 [Cladribine] (10 nM) | 102%
21 | COc1cccc2c1C(=O)c1c(O)c3c(c(O)c1C2=O)C[C@@](O)(C(=O)CO)C[C@@H]3O[C@H]1C[C@H](N)[C@H](O)[C@H](C)O1 [Doxorubicin] (10 nM) | 92.5%
22 | CC(=O)O[C@]1(C(C)=O)CC[C@H]2[C@@H]3C=C(C)C4=CC(=O)CC[C@]4(C)[C@H]3CC[C@@]21C [Megestrol acetate] (100 nM) | 101%
23 | CN(C)C/C=C/C(=O)Nc1cc2c(Nc3ccc(F)c(Cl)c3)ncnc2cc1O[C@H]1CCOC1 [Afatinib] (10 nM) | 96%
24 | COc1cccc2cc(-c3nc([C@H]4CC[C@H](C(=O)O)CC4)n4ncnc(N)c34)[nH]c12 [OSI-027] (100 nM) | 92%
25 | N#CC[C@H](C1CCCC1)n1cc(-c2ncnc3[nH]ccc23)cn1 [Ruxolitinib] (100 nM) | 93.8%

Tested on: BT-474
Assay: as above
Settings: incubation time: 72 h
Description: as §1

Row | Compound | normalised response
26 | O=C(c1ccc(C(=O)N2CCC(N3CCCC3)CC2)c(Nc2ccccc2)c1)N1CCC(N2CCCC2)CC1 [UNC1215] (300 nM) | 98.3%
27 | CN1CC[C@H](c2c(O)cc(O)c3c(=O)cc(-c4ccccc4Cl)oc23)[C@H](O)C1 [Alvocidib] (100 nM) | 85.8%
28 | OC[C@H]1O[C@@H](n2cnc3c2N=CNC[C@H]3O)C[C@@H]1O [Pentostatin] (100 nM) | 93.3%
29 | Nc1nc(Cl)nc2c1ncn2[C@H]1C[C@H](O)[C@@H](CO)O1 [Cladribine] (10 nM) | 99.6%
30 | COc1cccc2c1C(=O)c1c(O)c3c(c(O)c1C2=O)C[C@@](O)(C(=O)CO)C[C@@H]3O[C@H]1C[C@H](N)[C@H](O)[C@H](C)O1 [Doxorubicin] (10 nM) | 103%
31 | CC(=O)O[C@]1(C(C)=O)CC[C@H]2[C@@H]3C=C(C)C4=CC(=O)CC[C@]4(C)[C@H]3CC[C@@]21C [Megestrol acetate] (100 nM) | 109%
32 | CN(C)C/C=C/C(=O)Nc1cc2c(Nc3ccc(F)c(Cl)c3)ncnc2cc1O[C@H]1CCOC1 [Afatinib] (10 nM) | 98.9%
33 | COc1cccc2cc(-c3nc([C@H]4CC[C@H](C(=O)O)CC4)n4ncnc(N)c34)[nH]c12 [OSI-027] (100 nM) | 94.8%
34 | N#CC[C@H](C1CCCC1)n1cc(-c2ncnc3[nH]ccc23)cn1 [Ruxolitinib] (100 nM) | 96.6%

Tested on: HCC1937
Assay: as above
Settings: incubation time: 72 h
Description: as §1

Row | Compound | normalised response
35 | O=C(c1ccc(C(=O)N2CCC(N3CCCC3)CC2)c(Nc2ccccc2)c1)N1CCC(N2CCCC2)CC1 [UNC1215] (300 nM) | 92.7%
36 | CN1CC[C@H](c2c(O)cc(O)c3c(=O)cc(-c4ccccc4Cl)oc23)[C@H](O)C1 [Alvocidib] (100 nM) | 99.2%
37 | OC[C@H]1O[C@@H](n2cnc3c2N=CNC[C@H]3O)C[C@@H]1O [Pentostatin] (100 nM) | 99.4%
38 | Nc1nc(Cl)nc2c1ncn2[C@H]1C[C@H](O)[C@@H](CO)O1 [Cladribine] (10 nM) | 92.6%
39 | COc1cccc2c1C(=O)c1c(O)c3c(c(O)c1C2=O)C[C@@](O)(C(=O)CO)C[C@@H]3O[C@H]1C[C@H](N)[C@H](O)[C@H](C)O1 [Doxorubicin] (10 nM) | 101%
40 | CC(=O)O[C@]1(C(C)=O)CC[C@H]2[C@@H]3C=C(C)C4=CC(=O)CC[C@]4(C)[C@H]3CC[C@@]21C [Megestrol acetate] (100 nM) | 104%
